# In patent US20260028354A1, “TETRAHYDRONAPHTHALENE DERIVATIVES AS ESTROGEN RECEPTOR DEGRADERS” (REGENT OF THE UNIVERSITY OF MICHIGAN, priority 2022, published 2026):
# Like-named read-outs stand apart in the source and are kept apart here.
# Tests used:
# [1] = Cell growth assay (WST-8) for "B" compounds; assay type: cell-based; conditions: T47D, read-out: Cell growth Inhibition in T47D cell line IC50
# Method in brief: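 Cells seeded at 1500/well overnight, then exposed to compounds for 4 days. 10% WST-8 added for 2.5 h at 37 °C and absorbance read at 450 nm. Growth given as absorbance relative to vehicle control, from three repeats.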
# [2] = molecular target: ER (Homo sapiens (Human), UniProt P03372); assay: In-cell western blot analysis of ER for "B" compounds; assay type: cell-based; conditions: 16 hours, read-out: ICW DC50
# Sequence of ER (P03372 whole entry): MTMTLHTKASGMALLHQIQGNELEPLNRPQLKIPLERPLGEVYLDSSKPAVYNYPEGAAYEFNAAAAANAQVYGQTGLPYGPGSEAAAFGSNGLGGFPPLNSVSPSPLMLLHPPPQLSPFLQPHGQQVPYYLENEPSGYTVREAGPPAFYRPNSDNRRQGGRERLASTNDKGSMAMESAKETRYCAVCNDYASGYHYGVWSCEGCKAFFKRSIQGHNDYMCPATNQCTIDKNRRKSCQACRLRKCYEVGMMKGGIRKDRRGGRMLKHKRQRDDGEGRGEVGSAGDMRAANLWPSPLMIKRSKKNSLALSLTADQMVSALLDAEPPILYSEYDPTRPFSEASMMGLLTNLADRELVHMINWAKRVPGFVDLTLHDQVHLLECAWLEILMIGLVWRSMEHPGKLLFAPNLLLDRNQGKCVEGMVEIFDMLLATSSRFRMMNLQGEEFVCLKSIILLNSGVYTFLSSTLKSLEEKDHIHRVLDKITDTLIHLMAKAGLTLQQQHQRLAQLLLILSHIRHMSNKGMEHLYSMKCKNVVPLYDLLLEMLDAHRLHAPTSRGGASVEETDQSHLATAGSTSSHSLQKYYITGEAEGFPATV
# Method in brief: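 In-cell western: fixed cells stained with primary antibodies (2 h, RT), then anti-rabbit-680 and anti-mouse-800 secondaries (1:1000, 1 h, RT), imaged on a LI-COR plate reader. Relative ER level in treated wells expressed against untreated and DMSO-treated wells set as 100%.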
Compound,DC50 [2] [µM],IC50 [1] [µM],IC50 ([1]; T47D cell line) [µM]
"O=C1CCC(N2Cc3c(ccc4c3OCC43CCN(CC(=O)N4CC5(CCN(c6ccc([C@@H]7c8ccc(O)cc8CC[C@@H]7c7ccccc7)cc6)C5)C4)CC3)C2=O)C(=O)N1 (stereo partly drawn) [Compound B212, 3-(1′-(2-(6-(4-((1R,2S)-6-hydroxy-2-phenyl-1,2,3,4-tetrahydronaphthalen-1-yl)phenyl)-2,6-diazaspiro[3.4]octan-2-yl)-2-oxoethyl)-6-oxo-6,8-dihydro-2H,7H-spiro[furo[2,3-e]isoindole-3,4′-piperidin]-7-yl)piperidine-2,6-dione]",< 0.01,< 0.001,
"O=C1CCC(N2Cc3c(ccc4c3OCC43CCN(CC(=O)N4CCC5(CC4)CN(c4ccc([C@@H]6c7ccc(O)cc7CC[C@@H]6c6ccccc6)cc4)C5)CC3)C2=O)C(=O)N1 (stereo partly drawn) [Compound B213, 3-(1′-(2-(2-(4-((1R,2S)-6-hydroxy-2-phenyl-1,2,3,4-tetrahydronaphthalen-1-yl)phenyl)-2,7-diazaspiro[3.5]nonan-7-yl)-2-oxoethyl)-6-oxo-6,8-dihydro-2H,7H-spiro[furo[2,3-e]isoindole-3,4′-piperidin]-7-yl)piperidine-2,6-dione]",< 0.01,< 0.001,
"O=C1CCC(N2Cc3c(ccc4c3OC[C@H]3CN(C[C@H]5CCN(c6ccc([C@@H]7c8ccc(O)cc8CC[C@@H]7c7ccccc7)cc6)C5)CCN43)C2=O)C(=O)N1 (stereo partly drawn) [Compound B216, 3-((R)-7-(((R)-1-(4-((1R,2S)-6-hydroxy-2-phenyl-1,2,3,4-tetrahydronaphthalen-1-yl)phenyl)pyrrolidin-3-yl)methyl)-1-oxo-1,3,5,5a,6,7,8,9-octahydro-2H-pyrazino[1′,2′:4,5][1,4]oxazino[2,3-e]isoindol-2-yl)piperidine-2,6-dione]",0.01 to 0.1,,> 0.01
"O=C1CC[C@H](NC(=O)c2ccc3c(n2)OC[C@H]2CN(CC4CC5(CCN(c6ccc([C@@H]7c8ccc(O)cc8CC[C@@H]7c7ccccc7)cc6)CC5)C4)CCN32)C(=O)N1 [Compound B225, (R)-N-((S)-2,6-dioxopiperidin-3-yl)-3-((7-(4-((1R,2S)-6-hydroxy-2-phenyl-1,2,3,4-tetrahydronaphthalen-1-yl)phenyl)-7-azaspiro[3.5]nonan-2-yl)methyl)-1,2,3,4,4a,5-hexahydropyrazino[1,2-d]pyrido[2,3-b][1,4]oxazine-8-carboxamide]",0.01 to 0.1,,0.001 to 0.01
"O=C1CCC(N2Cc3c(ccc4c3OCC43CCN(CC4CCC5(CC4)CN(c4ccc([C@@H]6c7ccc(O)cc7CC[C@@H]6c6ccccc6)cc4)C5)CC3)C2=O)C(=O)N1 (stereo partly drawn) [Compound B228, 3-(1′-((2-(4-((1R,2S)-6-hydroxy-2-phenyl-1,2,3,4-tetrahydronaphthalen-1-yl)phenyl)-2-azaspiro[3.5]nonan-7-yl)methyl)-6-oxo-6,8-dihydro-2H,7H-spiro[furo[2,3-e]isoindole-3,4′-piperidin]-7-yl)piperidine-2,6-dione]",< 0.01,0.001 to 0.01,
"O=C1CCC(N2Cc3c(ccc4c3OCC43CCN(CC4COC5(CCN(c6ccc([C@@H]7c8ccc(O)cc8CC[C@@H]7c7ccccc7)cc6)CC5)C4)CC3)C2=O)C(=O)N1 (stereo partly drawn) [Compound B229, 3-(1′-((8-(4-((1R,2S)-6-hydroxy-2-phenyl-1,2,3,4-tetrahydronaphthalen-1-yl)phenyl)-1-oxa-8-azaspiro[4.5]decan-3-yl)methyl)-6-oxo-6,8-dihydro-2H,7H-spiro[furo[2,3-e]isoindole-3,4′-piperidin]-7-yl)piperidine-2,6-dione]",0.01 to 0.1,0.001 to 0.01,

# Second part, led by results:
DC50 [2] [µM],Compound,IC50 [1] [µM],IC50 ([1]; T47D cell line) [µM]
< 0.01,"O=C1CCC(N2Cc3c(ccc4c3OCC43CCN(C(=O)CN4CCC5(CC4)CN(c4ccc([C@@H]6c7ccc(O)cc7CC[C@@H]6c6ccccc6)cc4)C5)CC3)C2=O)C(=O)N1 (stereo partly drawn) [Compound B214, 3-(1′-(2-(2-(4-((1R,2S)-6-hydroxy-2-phenyl-1,2,3,4-tetrahydronaphthalen-1-yl)phenyl)-2,7-diazaspiro[3.5]nonan-7-yl)acctyl)-6-oxo-6,8-dihydro-2H,7H-spiro[furo[2,3-e]isoindole-3,4′-piperidin]-7-yl)piperidine-2,6-dione]",,< 0.001
0.01 to 0.1,"O=C1CCC(N2Cc3c(ccc4c3OC[C@H]3CN(C[C@@H]5CCN(c6ccc([C@@H]7c8ccc(O)cc8CC[C@@H]7c7ccccc7)cc6)C5)CCN43)C2=O)C(=O)N1 (stereo partly drawn) [Compound B215, 3-((R)-7-(((S)-1-(4-((1R,2S)-6-hydroxy-2-phenyl-1,2,3,4-tetrahydronaphthalen-1-yl)phenyl)pyrrolidin-3-yl)methyl)-1-oxo-1,3,5,5a,6,7,8,9-octahydro-2H-pyrazino[1′,2′:4,5][1,4]oxazino[2,3-e]isoindol-2-yl)piperidine-2,6-dione]",,0.001 to 0.01
> 0.1,"O=C1CCC(N2Cc3cc4c(cc3C2=O)CC2(C4)CN(C[C@@H]3CCN(c4ccc([C@@H]5c6ccc(O)cc6CC[C@@H]5c5ccccc5)cc4)C3)C2)C(=O)N1 (stereo partly drawn) [Compound B217, 3-(1-(((S)-1-(4-((1R,2S)-6-hydroxy-2-phenyl-1,2,3,4-tetrahydronaphthalen-1-yl)phenyl)pyrrolidin-3-yl)methyl)-1′-oxo-5′,7′-dihydro-1'H-spiro[azetidine-3,6′-cyclopenta[f]isoindol]-2'(3'H)-yl)piperidine-2,6-dione]",,0.001 to 0.01
> 0.1,"O=C1CCC(N2Cc3c(ccc4c3OC[C@H]3CN(CC(=O)N5CC(Nc6ccc([C@@H]7c8ccc(O)cc8CC[C@@H]7c7ccccc7)cc6)C5)CCN43)C2=O)C(=O)N1 (stereo partly drawn) [Compound B220, 3-((R)-7-(2-(3-((4-((1R,2S)-6-hydroxy-2-phenyl-1,2,3,4-tetrahydronaphthalen-1-yl)phenyl)amino)azetidin-1-yl)-2-oxoethyl)-1-oxo-1,3,5,5a,6,7,8,9-octahydro-2H-pyrazino[1′,2′:4,5][1,4]oxazino[2,3-e]isoindol-2-yl)piperidine-2,6-dione]",,< 0.001
> 0.1,"O=C1CC[C@H](NC(=O)c2ccc3c(n2)OC[C@H]2CN(CC4CCN(c5ccc([C@@H]6c7ccc(O)cc7CC[C@@H]6c6ccccc6)cc5)CC4)CCN32)C(=O)N1 [Compound B224, (R)-N-((S)-2,6-dioxopiperidin-3-yl)-3-((1-(4-((1R,2S)-6-hydroxy-2-phenyl-1,2,3,4-tetrahydronaphthalen-1-yl)phenyl)piperidin-4-yl)methyl)-1,2,3,4,4a,5-hexahydropyrazino[1,2-d]pyrido[2,3-b][1,4]oxazine-8-carboxamide]",,0.001 to 0.01
< 0.01,"O=C1CC[C@H](N2Cc3cc4c(cc3C2=O)OC[C@@H]2CN(CC3COC5(CCN(c6ccc([C@@H]7c8ccc(O)cc8CC[C@@H]7c7ccccc7)cc6)CC5)C3)CCN42)C(=O)N1 (stereo partly drawn) [Compound B227, (3S)-3-((4aS)-3-((8-(4-((1R,2S)-6-hydroxy-2-phenyl-1,2,3,4-tetrahydronaphthalen-1-yl)phenyl)-1-oxa-8-azaspiro[4.5]decan-3-yl)methyl)-8-oxo-1,2,3,4,4a,5,8,10-octahydro-9H-pyrazino[1′,2′: 4,5][1,4]oxazino[2,3-f]isoindol-9-yl)piperidine-2,6-dione]",,< 0.001
